# In US20260297060A1, “COMPOUNDS FOR THE DEGRADATION OF MUTANT BRAF” (C4 THERAPEUTICS, INC., priority 2023, published 2026):
# Where two headings read alike, the source gives them in different places.
# Assay: Pharmacokinetics after 21 days dosing in the efficacy study (plasma, tumor and brain concentrations; plasma AUC at steady state), Example 14
# Type: in vivo, female BALB/c nude mice
# Settings: for Concentration in Brain / concentration at 24 h: 24 h; for Concentration in Brain: BQL: below the lower limit of quantitation; for concentration at 4 h / concentration at 24 h / concentration at 0.25 h / concentration at 0.5 h / concentration at 1 h / concentration at 2 h / concentration at 8 h / concentration at 10 h / AUC: mouse, po; for AUC: read-out: Plasma AUC at steady state (Day 21), Average
# Description: Agents were tested in the A375 human melanoma xenografts. Compound 26 and Compound 141 were administered to BALB/c nude mice bearing A375 tumors from PG-DO and dosed via PO twice a day (BID) or third a day (TIP) or dosed P daily (QD) from PG-D. Dabrafenib was administered to BALB/c nude mice bearing A375 tumors from PG-D1 and dosed via P daily (QD). Compound 26 was dosed at 1.5 mg/kg (QD), 2 mg/kg (TID), 3 mg/kg (BID), 6 mg/kg (QD) and 10 mg/kg (BID) for 21 days. Compound 141 was dosed at 0.75 mg/kg (BID), 1 mg/kg (TID), 1.5 mg/kg (BID), 3 mg/kg (QD) and 5 mg/kg (BID) for 21 days. Dabrafenib was dosed at 100 mg/kg for 21 days. This study was non-GLP.
# The plasma samples were collected at predetermined time points for PK analysis. For non-termination plasma collection: the blood samples were collected into the 1.5 mL Eppendorf tubes containing 3 μL of 0.5 M EDTA-K2. And then the anticoagulant blood samples were centrifuged at 2,500 g at 4° C. for 15 minutes. For termination plasma collection: the mice was euthanized at predetermined time points post the treatment, the blood samples were collected into the 1.5 mL Eppendorf tubes containing 15 μL of 0.5 M EDTA-K2. And then the anticoagulant blood samples were centrifuged at 2,500 g at 4° C. for 15 minutes. The plasma samples were separated into 2 aliquots. The 1st was used for PK analysis, and the 2nd was served as backup.
# The tumor samples were collected at predetermined time points for PK and WB analysis. The tumor was dissected out and split into 3 parts. The 1st part was used for PK analysis, the 2nd part was used for WB analysis and the last one was used as backup for the study. The samples were transferred into pre-labeled tubes and quickly froze in liquid nitrogen within 2 minutes after dissection. The samples were stored at −80° C. before analysis.
# The brain samples were collected at predetermined time points for PK and potential WB analysis. The brain was dissected out and split into 3 parts (left brain, right brain upper and right brain lower), the left brain was used for PK, the right brain upper was used for WB and the last one was used as the backup for the study. The samples were transferred into pre-labeled tubes and quickly froze in liquid nitrogen within 2 minutes after dissection. The samples were stored at −80° C. before analysis.
# The harvested plasma and tumor samples were processed for pharmacokinetics analysis by LC-MS/MS with a concentration range of 1.00-1,000 ng/mL for dabrafenib in plasma and 0.0500-50 ng/mL in tumor and brain homogenate, 5.00-10,000 ng/mL for Compound 141 in plasma and 0.200~200 ng/ml in tumor and brain homogenate. 20.0~20,000 ng/mL for Compound 26 in plasma and 0.5~500 ng/mL for Compound 26 tumor and brain homogenate.
# Dabrafenib, Compound 26 and Compound 141 in female BALB/c nude mice plasma (K2-EDTA), tumor and brain homogenate were analyzed by LC-MS/MS (Triple Quad 6500+ Low Mass). Verapamil (5 ng/mL) in acetonitrile: methanol (V: V=95:5) was used as the internal standard for Dabrafenib, Compound 26 and Compound 141 in plasma. Verapamil (0.5 ng/mL) in acetonitrile: methanol (V: V=95:5) was used as the internal standard for Dabrafenib, Compound 26 and Compound 141 in tumor and brain homogenate.
# An aliquot of 10 μL unknown sample, calibration standard, quality control, dilute quality control, single blank and double blank samples were added to the 96-well plate. Each sample for Dabrafenib, Compound 26 and Compound 141 in plasma (except the double blank) was quenched with 200 μL IS respectively (double blank sample was quenched with 200 μL ACN: MeOH (V: V=95:5)); each sample for Dabrafenib, Compound 26 and Compound 141 in tumor and brain(except the double blank) was quenched with 100 μL IS respectively (double blank sample was quenched with 100 μL ACN: MeOH (V: V=95:5)); and then the mixture was vortex-mixed for 5 min at 800 rpm and centrifuged for 15 min at 3220 g (4000 rpm), 4° C. […]
# [1] = plasma, 1.5 mg/kg p.o. BID x 21 days, mean ± SEM
# [2] = plasma, 1.5 mg/kg p.o. BID x 21 days, mean ± SEM, read-out: Concentration in Plasma
# [3] = plasma, 2 mg/kg p.o. TID x 21 days, mean ± SEM
# [4] = plasma, 2 mg/kg p.o. TID x 21 days, mean ± SEM, read-out: Concentration in Plasma
# [5] = plasma, 3 mg/kg p.o. BID x 21 days, mean ± SEM
# [6] = plasma, 3 mg/kg p.o. BID x 21 days, mean ± SEM, read-out: Concentration in Plasma
# [7] = plasma, 6 mg/kg p.o. QD x 21 days, mean ± SEM
# [8] = plasma, 6 mg/kg p.o. QD x 21 days, mean ± SEM, read-out: Concentration in Plasma
# [9] = plasma, 10 mg/kg p.o. BID x 21 days, mean ± SEM
# [10] = plasma, 10 mg/kg p.o. BID x 21 days, mean ± SEM, read-out: Concentration in Plasma
# [11] = tumor, 1.5 mg/kg p.o. BID x 21 days, mean ± SEM, read-out: Concentration in Tumor
# [12] = tumor, 2 mg/kg p.o. TID x 21 days, mean ± SEM, read-out: Concentration in Tumor
# [13] = tumor, 3 mg/kg p.o. BID x 21 days, mean ± SEM, read-out: Concentration in Tumor
# [14] = tumor, 6 mg/kg p.o. QD x 21 days, mean ± SEM, read-out: Concentration in Tumor
# [15] = tumor, 10 mg/kg p.o. BID x 21 days, mean ± SEM, read-out: Concentration in Tumor
compound,measurement,setting,value
"CCN(C)S(=O)(=O)Nc1ccc(F)c(Oc2ccc3ncn([C@H]4COC5(CCN(C6CC7(C6)CN(c6cc8c(cc6F)c(N6CCC(=O)NC6=O)nn8C)C7)CC5)C4)c(=O)c3c2)c1C#N [Compound 26, (3R)-3-[6-[2-cyano-3-[[ethyl(methyl)sulfamoyl]amino]-6-fluoro-phenoxy]-4-oxo-quinazolin-3-yl]-8-[2-[3-(2,4-dioxohexahydropyrimidin-1-yl)-5-fluoro-1-methyl-indazol-6-yl]-2-azaspiro[3.3]heptan-6-yl]-1-oxa-8-azaspiro[4.5]decane]",Concentration in Brain,1.5 mg/kg p.o. BID x 21 days,BQL
same,Concentration in Brain,2 mg/kg p.o. TID x 21 days,BQL
same,Concentration in Brain,3 mg/kg p.o. BID x 21 days,BQL
same,concentration at 4 h,"brain, 1.5 mg/kg p.o. BID x 21 days, mean ± SEM, read-out: Concentration in Brain",28 ± 8.47 ng/g
same,concentration at 4 h,"brain, 2 mg/kg p.o. TID x 21 days, mean ± SEM, read-out: Concentration in Brain",51.1 ± 11.5 ng/g
same,concentration at 4 h,"brain, 3 mg/kg p.o. BID x 21 days, mean ± SEM, read-out: Concentration in Brain",66.6 ± 4.67 ng/g
same,concentration at 4 h,"brain, 6 mg/kg p.o. QD x 21 days, mean ± SEM, read-out: Concentration in Brain",116 ± 8.11 ng/g
same,concentration at 24 h,"brain, 6 mg/kg p.o. QD x 21 days, read-out: Concentration in Brain",7.19 ng/g
same,concentration at 4 h,"brain, 10 mg/kg p.o. BID x 21 days, mean ± SEM, read-out: Concentration in Brain",233 ± 48.4 ng/g
same,concentration at 24 h,"brain, 10 mg/kg p.o. BID x 21 days, read-out: Concentration in Brain",7.79 ng/g
same,concentration at 0.25 h,[1],1330 ± 120 ng/mL
same,concentration at 0.5 h,[1],1910 ± 332 ng/mL
same,concentration at 1 h,[1],3490 ± 364 ng/mL
same,concentration at 2 h,[1],3140 ± 671 ng/mL
same,concentration at 4 h,[2],2160 ± 716 ng/mL
same,concentration at 8 h,[1],912 ± 118 ng/mL
same,concentration at 10 h,[1],694 ± 79.9 ng/mL
same,concentration at 24 h,[2],32.3 ng/mL
same,AUC,"plasma, 1.5 mg/kg p.o. BID × 21 days",37400 ng·h/mL
same,concentration at 0.25 h,[3],2630 ± 273 ng/mL
same,concentration at 0.5 h,[3],5750 ± 1100 ng/mL
same,concentration at 1 h,[3],5420 ± 571 ng/mL
same,concentration at 2 h,[3],5110 ± 286 ng/mL
same,concentration at 4 h,[4],3790 ± 666 ng/mL
same,concentration at 8 h,[3],2060 ± 150 ng/mL
same,concentration at 10 h,[3],1550 ± 37.1 ng/mL
same,concentration at 24 h,[4],106 ± 17.7 ng/mL
same,AUC,"plasma, 2 mg/kg p.o. TID × 21 days",88300 ng·h/mL
same,concentration at 0.25 h,[5],2490 ± 107 ng/mL
same,concentration at 0.5 h,[5],4860 ± 801 ng/mL
same,concentration at 1 h,[5],5830 ± 591 ng/mL
same,concentration at 2 h,[5],6750 ± 675 ng/mL
same,concentration at 4 h,[6],3970 ± 452 ng/mL
same,concentration at 8 h,[5],3030 ± 252 ng/mL
same,concentration at 10 h,[5],2470 ± 266 ng/mL
same,concentration at 24 h,[6],116 ± 2.4 ng/mL
same,AUC,"plasma, 3 mg/kg p.o. BID × 21 days",87900 ng·h/mL
same,concentration at 0.25 h,[7],4440 ± 284 ng/mL
same,concentration at 0.5 h,[7],9990 ± 1160 ng/mL
same,concentration at 1 h,[7],12900 ± 669 ng/mL
same,concentration at 2 h,[7],14600 ± 723 ng/mL
same,concentration at 4 h,[8],8710 ± 1880 ng/mL
same,concentration at 8 h,[7],8220 ± 421 ng/mL
same,concentration at 10 h,[7],6200 ± 192 ng/mL
same,concentration at 24 h,[8],156 ± 10.9 ng/mL
same,AUC,"plasma, 6 mg/kg p.o. QD × 21 days",115000 ng·h/mL
same,concentration at 0.25 h,[9],8790 ± 316 ng/mL
same,concentration at 0.5 h,[9],19300 ± 2220 ng/mL
same,concentration at 1 h,[9],20200 ± 2240 ng/mL
same,concentration at 2 h,[9],21300 ± 1560 ng/mL
same,concentration at 4 h,[10],15100 ± 2210 ng/mL
same,concentration at 8 h,[9],10900 ± 379 ng/mL
same,concentration at 10 h,[9],8660 ± 186 ng/mL
same,concentration at 24 h,[10],273 ± 24.8 ng/mL
same,AUC,"plasma, 10 mg/kg p.o. BID × 21 days",312000 ng·h/mL
same,concentration at 4 h,[11],392 ± 150 ng/g
same,concentration at 24 h,[11],11.8 ± 1.59 ng/g
same,concentration at 4 h,[12],930 ± 57.3 ng/g
same,concentration at 24 h,[12],80.7 ± 25.2 ng/g
same,concentration at 4 h,[13],1430 ± 159 ng/g
same,concentration at 24 h,[13],54.3 ± 8.91 ng/g
same,concentration at 4 h,[14],2910 ± 459 ng/g
same,concentration at 24 h,[14],338 ± 169 ng/g
same,concentration at 4 h,[15],4250 ± 313 ng/g
same,concentration at 24 h,[15],663 ± 153 ng/g
